Converted amounts (≈) assume the structure as drawn. The source made the active and inactive calls. The calls are words filed in the database; no cut-off is given here.
Experiments:
Type in all cases: functional
Staphylococcus aureus [1] = experiment: Antibacterial activity against Staphylococcus aureus ATCC 29213
Bacillus subtilis = experiment: Antibacterial activity against Bacillus subtilis PY79
Staphylococcus aureus [2] = experiment: Antibacterial activity against Staphylococcus aureus ATCC 43300
Enterococcus faecalis = experiment: Antibacterial activity against Enterococcus faecalis ATCC 29212

| MIC50 (Staphylococcus aureus [1]) | MIC50 (Bacillus subtilis) | MIC50 (Staphylococcus aureus [2]) | MIC50 (Enterococcus faecalis) | MIC90 (Staphylococcus aureus [1]) [µg/mL] | MIC90 (Bacillus subtilis) [µg/mL] | MIC90 (Staphylococcus aureus [2]) [µg/mL] | MIC90 (Enterococcus faecalis) [µg/mL] | SMILES |
| --- | --- | --- | --- | --- | --- | --- | --- | --- |
| 90 µg/mL (≈ 235 µM) | 108 µg/mL (≈ 282 µM) | 22 µg/mL (≈ 57.4 µM) | 47 µg/mL (≈ 123 µM) | – | – | – | – | CCN1CC[C@@H](CN(Cc2ccccc2)Cc2cccc([N+](=O)[O-])c2)OC1=O |
| inactive | inactive | inactive | 45 µg/mL (≈ 117 µM) | – | – | – | – | CCN1CC[C@@H](CN(Cc2ccccc2)Cc2ccc([N+](=O)[O-])cc2)OC1=O |
| 85 µg/mL (≈ 245 µM) | 90 µg/mL (≈ 260 µM) | 119 µg/mL (≈ 344 µM) | inactive | – | – | – | – | CN1C[C@@H](CN(Cc2ccccc2)Cc2ccc(F)cc2F)OC1=O |
| 5.6 µg/mL (≈ 13.7 µM) | 5 µg/mL (≈ 12.3 µM) | 6.56 µg/mL (≈ 16.1 µM) | inactive | 9.85 (≈ 24.2 µM) | 7.44 (≈ 18.3 µM) | – | – | CCN1CC[C@@H](CN(Cc2ccccc2)Cc2ccc(Cl)c(Cl)c2)OC1=O |
| 90 µg/mL (≈ 244 µM) | 95 µg/mL (≈ 258 µM) | 90 µg/mL (≈ 244 µM) | 80.5 µg/mL (≈ 218 µM) | – | – | – | – | CCN1CC[C@@H](CN(Cc2ccccc2)Cc2cccc(OC)c2)OC1=O |
| 72 µg/mL (≈ 188 µM) | 100 µg/mL (≈ 261 µM) | 100 µg/mL (≈ 261 µM) | 43 µg/mL (≈ 112 µM) | – | – | – | – | CCN1CC[C@@H](CN(Cc2ccccc2)Cc2ccccc2[N+](=O)[O-])OC1=O |
| 50 µg/mL (≈ 139 µM) | 55 µg/mL (≈ 153 µM) | 72 µg/mL (≈ 200 µM) | 59.5 µg/mL (≈ 165 µM) | – | – | – | – | CN1CC[C@@H](CN(Cc2ccccc2)Cc2ccc(F)cc2F)OC1=O |
| 18 µg/mL (≈ 46.2 µM) | 22 µg/mL (≈ 56.5 µM) | 21 µg/mL (≈ 53.9 µM) | 7.4 µg/mL (≈ 19 µM) | – | – | – | – | CN1C[C@@H](CN(Cc2ccccc2)Cc2ccccc2Br)OC1=O |
| 45 µg/mL (≈ 120 µM) | 38 µg/mL (≈ 101 µM) | 50.5 µg/mL (≈ 135 µM) | 59.5 µg/mL (≈ 159 µM) | – | – | – | – | CCN1CC[C@@H](CN(Cc2ccccc2)Cc2ccc(F)cc2F)OC1=O |
| 119 µg/mL (≈ 344 µM) | 80 µg/mL (≈ 231 µM) | inactive | inactive | – | – | – | – | CN1C[C@@H](CN(Cc2ccccc2)Cc2ccc(F)c(F)c2)OC1=O |
| 179 µg/mL (≈ 485 µM) | 238 µg/mL (≈ 644 µM) | inactive | 238 µg/mL (≈ 644 µM) | – | – | – | – | CN1CC[C@@H](CN(Cc2ccccc2)Cc2ccccc2[N+](=O)[O-])OC1=O |
| 138 µg/mL (≈ 374 µM) | 238 µg/mL (≈ 644 µM) | inactive | 119 µg/mL (≈ 322 µM) | – | – | – | – | CN1CC[C@@H](CN(Cc2ccccc2)Cc2cccc([N+](=O)[O-])c2)OC1=O |
| inactive | inactive | inactive | inactive | – | – | – | – | CCN1CC[C@@H](CN(Cc2ccccc2)Cc2ccccn2)OC1=O |
| – | – | – | – | 7.44 (≈ 23 µM) | 2 (≈ 6.19 µM) | 7.44 (≈ 23 µM) | 4 (≈ 12.4 µM) | O=C(N[C@H](CO)[C@H](O)c1ccc([N+](=O)[O-])cc1)C(Cl)Cl [CHLORAMPHENICOL] |
| 10 µg/mL (≈ 25.7 µM) | 7.6 µg/mL (≈ 19.6 µM) | 35 µg/mL (≈ 90.1 µM) | 7.4 µg/mL (≈ 19 µM) | 14.9 (≈ 38.4 µM) | 30 (≈ 77.2 µM) | – | – | CCN1CC[C@@H](CN(Cc2ccccc2)Cc2cccc3ccccc23)OC1=O |
| 11.5 µg/mL (≈ 30.7 µM) | 12 µg/mL (≈ 32 µM) | 13 µg/mL (≈ 34.7 µM) | 14.9 µg/mL (≈ 39.8 µM) | 14.9 (≈ 39.8 µM) | 30 (≈ 80.1 µM) | – | – | CN1CC[C@@H](CN(Cc2ccccc2)Cc2ccc3ccccc3c2)OC1=O |

| MIC50 (Staphylococcus aureus [1]) | MIC50 (Bacillus subtilis) | MIC50 (Staphylococcus aureus [2]) | MIC50 (Enterococcus faecalis) | MIC90 (Staphylococcus aureus [1]) [µg/mL] | MIC90 (Bacillus subtilis) [µg/mL] | MIC90 (Staphylococcus aureus [2]) [µg/mL] | MIC90 (Enterococcus faecalis) [µg/mL] | SMILES |
| --- | --- | --- | --- | --- | --- | --- | --- | --- |
| inactive | inactive | inactive | inactive | – | – | – | – | CN1C[C@@H](CN(Cc2ccccc2)Cc2ccc(F)cc2)OC1=O |
| 15 µg/mL (≈ 38.6 µM) | 29 µg/mL (≈ 74.6 µM) | inactive | 13 µg/mL (≈ 33.5 µM) | – | – | – | – | CCN1CC[C@@H](CN(Cc2ccccc2)Cc2ccc3ccccc3c2)OC1=O |
| 40 µg/mL (≈ 107 µM) | 43 µg/mL (≈ 115 µM) | 45 µg/mL (≈ 120 µM) | 37 µg/mL (≈ 98.8 µM) | – | – | – | – | CCN1CC[C@@H](CN(Cc2ccccc2)Cc2cc(F)cc(F)c2)OC1=O |
| 130 µg/mL (≈ 358 µM) | 160 µg/mL (≈ 440 µM) | 180 µg/mL (≈ 495 µM) | 33 µg/mL (≈ 90.8 µM) | – | – | – | – | CCN1CC[C@@H](CN(Cc2ccccc2)Cc2ccccc2C#N)OC1=O |
| 22 µg/mL (≈ 62.4 µM) | 26 µg/mL (≈ 73.8 µM) | 22.5 µg/mL (≈ 63.8 µM) | 8.1 µg/mL (≈ 23 µM) | 29.8 (≈ 84.5 µM) | 59.5 (≈ 169 µM) | – | – | CCN1CC[C@@H](CN(Cc2ccccc2)Cc2ccccc2C)OC1=O |
| 180 µg/mL (≈ 515 µM) | 180 µg/mL (≈ 515 µM) | 238 µg/mL (≈ 681 µM) | 7.4 µg/mL (≈ 21.2 µM) | – | – | – | – | CN1CC[C@@H](CN(Cc2ccccc2)Cc2cccc(C#N)c2)OC1=O |
| 81 µg/mL (≈ 219 µM) | 98 µg/mL (≈ 265 µM) | inactive | 119 µg/mL (≈ 322 µM) | – | – | – | – | CN1CC[C@@H](CN(Cc2ccccc2)Cc2ccc([N+](=O)[O-])cc2)OC1=O |
| inactive | inactive | inactive | 238 µg/mL (≈ 701 µM) | – | – | – | – | CCN1CC[C@@H](CN(Cc2ccccc2)Cc2cccnc2)OC1=O |
| 238 µg/mL (≈ 655 µM) | 238 µg/mL (≈ 655 µM) | inactive | 45 µg/mL (≈ 124 µM) | – | – | – | – | CCN1CC[C@@H](CN(Cc2ccccc2)Cc2cccc(C#N)c2)OC1=O |
| 87.1 µg/mL (≈ 254 µM) | 95 µg/mL (≈ 277 µM) | 119 µg/mL (≈ 348 µM) | 120 µg/mL (≈ 350 µM) | – | – | – | – | CN1CC[C@@H](CN(Cc2ccccc2)Cc2ccc(F)cc2)OC1=O |
| 20 µg/mL (≈ 51.4 µM) | 22 µg/mL (≈ 56.5 µM) | 59.5 µg/mL (≈ 153 µM) | inactive | – | – | – | – | CN1C[C@@H](CN(Cc2ccccc2)Cc2ccc(Br)cc2)OC1=O |
| 200 µg/mL (≈ 572 µM) | 238 µg/mL (≈ 681 µM) | inactive | 238 µg/mL (≈ 681 µM) | – | – | – | – | CN1CC[C@@H](CN(Cc2ccccc2)Cc2ccc(C#N)cc2)OC1=O |
| 64 µg/mL (≈ 180 µM) | 42.5 µg/mL (≈ 119 µM) | 47 µg/mL (≈ 132 µM) | 35 µg/mL (≈ 98.2 µM) | – | – | – | – | CCN1CC[C@@H](CN(Cc2ccccc2)Cc2ccc(F)cc2)OC1=O |
| 166 µg/mL (≈ 475 µM) | 180 µg/mL (≈ 515 µM) | 180 µg/mL (≈ 515 µM) | 59.5 µg/mL (≈ 170 µM) | – | – | – | – | CN1CC[C@@H](CN(Cc2ccccc2)Cc2ccccc2C#N)OC1=O |
| 180 µg/mL (≈ 495 µM) | 10 µg/mL (≈ 27.5 µM) | 59.5 µg/mL (≈ 164 µM) | 12 µg/mL (≈ 33 µM) | – | – | – | – | CCN1CC[C@@H](CN(Cc2ccccc2)Cc2ccc(C#N)cc2)OC1=O |
| 47 µg/mL (≈ 126 µM) | 77 µg/mL (≈ 206 µM) | 70 µg/mL (≈ 187 µM) | 59.5 µg/mL (≈ 159 µM) | – | – | – | – | CCN1CC[C@@H](CN(Cc2ccccc2)Cc2c(F)cccc2F)OC1=O |
